This note sets out measurements from PMC9266460, “KSK-74: Dual Histamine H3 and Sigma-2 Receptor Ligand with Anti-Obesity Potential” (International Journal of Molecular Sciences, 2022).

Data set [1] in a line: Pharmacokinetic study, single i.p. dose, plasma LC-MS/MS. The format is in vivo, rat. The following applies: for Tmax / Cmax / CL/F / MRT / half-life / k el / Vd/F: ip; for Tmax / Cmax / CL/F / MRT / half-life / k el / Vz/F (volume of distribution) / Vd/F: rat plasma, single i.p. dose of 10 mg/kg; for Cmax: n = 3, non-compartmental; for CL/F: read-out: CLS/F (clearance) (converted); for MRT: read-out: MRT (mean residence time); for half-life: read-out: t0.5λz (half-life) (converted); for k el: read-out: λz (terminal elimination rate constant) (converted); for Vz/F (volume of distribution) / Vd/F: 10 mg/kg; for Vd/F: rat, plasma, read-out: Vz/F (volume of distribution); for time at which maximal plasma concentration was attained (first sampling point): single i.p. dose of 10 mg/kg b.w. The method, then: Six rats divided into two experimental groups were used in pharmacokinetic experiments. Three days before the experiment, the rats’ jugular vein was cannulated allowing for multiple blood sampling from a single animal. The investigated compounds were administered i.p. at a single dose of 10 mg/kg. Blood samples (approximately 300 µL) were collected in Eppendorf tubes containing heparin at 5, 15, 30, 60, 120, 240, and 360 min after dosing. Plasma was harvested by centrifuging at 5000× g for 10 min and stored at −30 °C until bioanalysis.
Plasma concentrations of KSK-60 or KSK-74 were measured using the liquid chromatography tandem mass spectrometry (LC-MS/MS) method. The samples (50 μL) were deproteinized in a 1:3 (v/v) ratio with acetonitrile containing an internal standard (IS—pentoxifylline), briefly vortexed, and then centrifuged for 10 min at a speed of 8000× g (Eppendorf miniSpin centrifuge). The supernatant was transferred to autosampler vials and a sample volume of 10 μL was injected into the LC-MS/MS system.
Chromatographic separation was performed on the analytical column XBridge™ C18 (3 × 50 mm, 5 µm, Waters, Dublin, Ireland) using the Agilent 1100 HPLC system (Agilent Technologies, Waldbronn, Germany). The mobile phase containing 0.1% formic acid in acetonitrile and 0.1% formic acid in water was run at 0.3 mL/min in gradient mode. Mass spectrometric detection was performed on an Applied Biosystems MDS Sciex (Concord, ON, Canada) API 2000 triple quadrupole mass spectrometer. Electrospray ionization (ESI) in the positive ion mode was used for ion production. The tandem mass spectrometer was operated at unit resolution in the selected reaction monitoring mode (SRM), monitoring the transitions of the protonated molecular ions m/z 396 to 107 (CE 80 V) for KSK-60, m/z 424 to 107 (CE 80 V) for KSK-74, and m/z 279 to 181 (CE 55 V) for IS. Data acquisition and processing were performed using the Applied Biosystems Analyst version 1.6 software. The calibration curves were constructed by plotting the ratio of the peak area of the studied compound to IS versus drug concentration, and generated by weighted (1/x · x) linear regression analysis. The validated quantitation ranges were from 1 to 2000 ng/mL. The calculated accuracy and precision were within the ranges proposed by the guidelines for the validation of bioanalytical methods (FDA, EMA). No significant matrix effect was observed and there were no stability-related problems during the routine analysis of the samples.
Pharmacokinetic parameters were calculated by employing a non-compartmental approach using Monolix version 2019R1 (Antony, France: Lixoft SAS, 2019) software. The area under the mean plasma concentration versus time curve extrapolated to infinity (AUC0-inf) was estimated using the log/linear trapezoidal rule. AUMC0-inf was estimated by calculating the total area under the first-moment curve by combining the trapezoid calculation of AUMC0-t and the extrapolated area. The mean residence time (MRT) was calculated from AUMC0-inf/AUC0-inf. The terminal rate constant (λz) was calculated by log-linear regression of the drug concentration data in the terminal phase, and the terminal half-life (t1/2) was calculated as 0.693/λz. Clearance (CL/F) was estimated from the administered dose divided by AUC0-inf. The apparent volume of distribution during the terminal phase (Vz/F) was calculated from (CL/F)/λz.

Another data set deals with H3 histamine receptor (Homo sapiens, UniProt Q9Y5N1). The data set is described as follows: Intrinsic activity at H3R, LANCE Ultra cAMP assay. The format is cell-based. Here is the method:
Intrinsic activity studies were performed using two methods, Aequoscreen and LANCE Ultra cAMP assays, according to the manufacturer of the ready-to-use cells with stable expressions of the H3 histamine receptor (Perkin Elmer).
The assay is based on the competition between the europium (Eu) chelate-labeled cAMP tracer and sample cAMP for binding sites on cAMP-specific monoclonal antibodies labeled with the ULight dye.
(In TR-FRET formats the signal depends on donor and acceptor labels being close together.)

Data set [2] has as its system rats fed a palatable diet. The data set is described as follows: Intraperitoneal glucose tolerance test. The format is in vivo, female Wistar rats. The following applies: 10 mg/kg; for blood glucose levels after glucose load vs control animals fed palatable feed: glucose 1 g/kg i.p., 29th day. Here is the method:
The test was conducted on the 29th day of the experiment. After twenty-eight administrations of the test compounds, the food was stopped for 20 h and then glucose tolerance was tested. Glucose (1 g/kg b.w.) was administered i.p.. Blood samples were obtained from the tail vein at the time points 0 (before glucose administration), 30, 60, and 120 min after administration. Glucose levels were measured with a glucometer (ContourTS, Bayer, Leverkusen, Germany, test stripes: ContourTS, Ascensia Diabetes care Poland Sp. z o. o., Poland, REF:84239666). The area under the curve (AUC) was calculated using the trapezoidal rule.

Another data set has as its target T1, H3R (Homo sapiens, UniProt Q9Y5N1).
T1 construct: the Aequoscreen line co-expresses apoaequorin
The data set is described as follows: Affinity at the H3R (literature values). The following applies: H3R Ki relative to sigma-2 Ki. The format is binding.

H3 histamine receptor, sequence (Q9Y5N1 whole entry): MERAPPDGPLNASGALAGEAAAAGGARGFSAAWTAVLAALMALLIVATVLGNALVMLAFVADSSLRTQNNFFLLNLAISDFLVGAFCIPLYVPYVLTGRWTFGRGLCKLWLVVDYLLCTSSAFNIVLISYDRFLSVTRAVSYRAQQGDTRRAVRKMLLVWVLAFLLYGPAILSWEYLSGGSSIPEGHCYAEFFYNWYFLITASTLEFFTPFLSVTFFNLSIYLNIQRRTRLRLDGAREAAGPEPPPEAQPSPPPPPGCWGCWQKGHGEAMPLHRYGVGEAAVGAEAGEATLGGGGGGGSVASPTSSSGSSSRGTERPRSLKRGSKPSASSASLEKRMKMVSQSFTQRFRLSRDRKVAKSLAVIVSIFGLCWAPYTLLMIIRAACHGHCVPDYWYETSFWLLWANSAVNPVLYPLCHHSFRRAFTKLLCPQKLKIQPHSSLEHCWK
T1 sequence (Q9Y5N1 whole entry): as above

As to `CCC(=O)c1ccc(OCCCCCCN2CCN(c3ccncc3)CC2)cc1` [KSK-60], in data set [1], the Tmax came to 4.98 min, the concentration peaked (Cmax) at 109 ng/mL, the CL/F was 1170 mL/min/kg and the MRT was found to be 3.28 h. In addition, in data set [1], the half-life was 2.7 h, the k el is 7.22e-05 s⁻¹, the “Vz/F (volume of distribution)” value turned out to be 272.63 L/kg and the Vd/F was 272 L/kg. Also, in data set [1], the “time at which maximal plasma concentration was attained (first sampling point)” value was determined as 5 min. The IC50 on H3 histamine receptor stood at 0.78 ± 0.1 nM. In data set [2], the “area under the IPGTT curve (AUC) vs rats fed high-calorie feed” value is recorded as “decreased significantly” and the “blood glucose levels after glucose load vs control animals fed palatable feed” value is listed as “significantly lower at 30 or/and 60 min after glucose load”.

As to `CCC(=O)c1ccc(OCCCCCCCCN2CCN(c3ccncc3)CC2)cc1` [KSK-74], at H3R, the “affinity ratio H3/sigma-2 receptors” value is 0.59. In data set [1], the Tmax is 4.98 min, the concentration peaked (Cmax) at 105 ng/mL, the CL/F is 2180 mL/min/kg and the mean residence time (MRT) turned out to be 2.45 h. In addition, in data set [1], the half-life is 2.71 h, the k el is 6.94e-05 s⁻¹, the “Vz/F (volume of distribution)” value worked out at 513.14 L/kg and the Vd/F came out at 513 L/kg. Moreover, the “time at which maximal plasma concentration was attained (first sampling point)” value in data set [1] is listed as 5 min. Moreover, on H3 histamine receptor, it took 23.2 ± 3.6 nM to reach half-maximal inhibition (IC50). Also, in data set [2], the “area under the IPGTT curve (AUC) vs rats fed high-calorie feed” value was “decreased significantly” and the “blood glucose levels after glucose load vs control animals fed palatable feed” value was “significantly lower at 30 or/and 60 min after glucose load”.

What is called Tmax is the time at which the peak concentration occurs. Broadly, the Cmax is the peak of the concentration-time curve. For orientation: MRT means a mean duration of stay, worked out from the concentration-time curve. One may read the half-life as how long it takes for the measured level to halve. As a reminder, the IC50 is the point on the concentration scale where inhibition reaches its midpoint. Low readings indicate inhibition by little substance, high ones a need for much substance.
